Data from ChEMBL document CHEMBL1201862, “PubChem BioAssay data set” (2004).
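Each compound was tested at five concentrations against cells in 96-well plates for 48 hours. GI50 marks 50% less growth.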 Activity calls are given as the source filed them. Cut-off read from the data, not from the text of the source: active = GI50 up to about 1.1 µM and inactive = higher.

Assays:
Assay in all cases: inhibition of tumour cell growth, NCI panel, 48 h
HT-29 = system: HT-29
MDA-MB-231 = system: MDA-MB-231
MDA-N = system: MDA-N
NCI-H226 = system: NCI-H226
NCI-H460 = system: NCI-H460
NCI-H522 = system: NCI-H522
OVCAR-3 = system: OVCAR-3
OVCAR-4 = system: OVCAR-4
OVCAR-8 = system: OVCAR-8
PC-3 = system: PC-3
RPMI-8226 = system: RPMI-8226
SF-539 = system: SF-539
SK-MEL-2 = system: SK-MEL-2
SK-MEL-5 = system: SK-MEL-5
SN12C = system: SN12C
UACC-62 = system: UACC-62
UO-31 = system: UO-31
A498 = system: A498
HL-60 = system: HL-60
SR = system: SR

Measured: GI50

Cc1cccc2nc3cc(O)cc(O)c3c(O)c12
inactive: HT-29 > 10 µM | MDA-MB-231 > 10 µM | MDA-N > 10 µM | NCI-H226 > 10 µM | NCI-H460 > 10 µM | NCI-H522 > 10 µM | OVCAR-3 > 10 µM | OVCAR-4 > 10 µM | OVCAR-8 > 10 µM | PC-3 > 10 µM | RPMI-8226 > 10 µM | SF-539 > 10 µM | SK-MEL-2 > 10 µM | SK-MEL-5 > 10 µM | SN12C > 10 µM | UACC-62 6.49 µM | UO-31 > 10 µM

N#CCCCCC12C3C(=O)N(c4ccccc4)C(=O)C3ON1O[C@@H]1C(=O)N(c3ccccc3)C(=O)[C@@H]12 (some centres not stated)
inactive: A498 > 100 µM | HL-60 > 100 µM | HT-29 > 100 µM | MDA-MB-231 > 100 µM | MDA-N > 100 µM | NCI-H226 > 100 µM | NCI-H460 > 100 µM | NCI-H522 > 100 µM | OVCAR-3 > 100 µM | OVCAR-4 > 100 µM | OVCAR-8 > 100 µM | PC-3 > 100 µM | SF-539 > 100 µM | SK-MEL-5 > 100 µM | SN12C > 100 µM | UACC-62 > 100 µM | UO-31 > 100 µM

O=C1C(C(c2ccccc2)N2CCOCC2)=C(O)C(c2ccccc2)N1c1ccccc1 (configuration not stated)
inactive: A498 > 10 µM | HL-60 > 10 µM | HT-29 > 10 µM | MDA-MB-231 > 10 µM | MDA-N > 10 µM | NCI-H226 > 10 µM | NCI-H460 > 10 µM | NCI-H522 > 10 µM | OVCAR-3 > 10 µM | OVCAR-8 > 10 µM | PC-3 > 10 µM | RPMI-8226 > 10 µM | SF-539 > 10 µM | SK-MEL-2 > 10 µM | SK-MEL-5 > 10 µM | SN12C > 10 µM | UACC-62 > 10 µM | UO-31 > 10 µM

Cc1cnccc1/N=N/c1ccc(N(C)C)cc1
inactive: A498 28.3 µM | HL-60 47.5 µM | HT-29 23.1 µM | MDA-MB-231 16.3 µM | MDA-N 8.32 µM | NCI-H226 4.82 µM | NCI-H460 25.7 µM | OVCAR-3 19.6 µM | OVCAR-4 16.9 µM | OVCAR-8 22.1 µM | PC-3 26.6 µM | RPMI-8226 18.5 µM | SF-539 19.6 µM | SK-MEL-5 15 µM | SN12C 21.9 µM | UACC-62 13.8 µM | UO-31 18.1 µM

COc1c(-c2nc3ccc(N4CCN(C)CC4)nc3[nH]2)cc(OC)c2[nH]c(COC(C)=O)nc12
inactive: A498 93.1 µM | HT-29 20.3 µM | MDA-MB-231 17.9 µM | MDA-N 24.7 µM | NCI-H460 31.6 µM | NCI-H522 37.1 µM | OVCAR-4 32.4 µM | OVCAR-8 50.4 µM | SF-539 14.9 µM | SK-MEL-2 19.5 µM | SK-MEL-5 16.2 µM | SN12C 20.4 µM | SR 3.78 µM | UACC-62 47.9 µM | UO-31 30.7 µM

CCC(=O)OCN1C(=O)C=CC1=O
inactive: A498 > 44.5 µM | HL-60 7.19 µM | HT-29 17.9 µM | MDA-MB-231 18.7 µM | MDA-N 16.9 µM | NCI-H226 41.9 µM | NCI-H460 18.6 µM | NCI-H522 1.91 µM | OVCAR-3 7.16 µM | OVCAR-4 17.6 µM | OVCAR-8 18.3 µM | PC-3 17.1 µM | SF-539 18.3 µM | SK-MEL-2 15.7 µM | SK-MEL-5 27.5 µM | SN12C 18.4 µM | UACC-62 17 µM | UO-31 7.91 µM

CCNc1nc(N)c(C(=O)c2ccc(Cl)cc2)s1
inactive: A498 20.8 µM | HL-60 13.6 µM | HT-29 27 µM | MDA-MB-231 > 100 µM | MDA-N 41.8 µM | NCI-H226 22.3 µM | NCI-H460 18.8 µM | OVCAR-3 19.9 µM | OVCAR-4 36.3 µM | PC-3 39.9 µM | RPMI-8226 30.3 µM | SF-539 33 µM | SK-MEL-2 41.7 µM | SK-MEL-5 27.7 µM | SN12C 49.7 µM | UACC-62 45.5 µM | UO-31 15 µM

COc1ccc(N2C(=O)/C(=C\c3cccc(Oc4ccccc4)c3)SC2c2ccccc2)cc1 (configuration not stated)
inactive: A498 > 100 µM | HL-60 20.5 µM | MDA-MB-231 > 100 µM | MDA-N 29.3 µM | NCI-H226 > 100 µM | NCI-H460 > 100 µM | NCI-H522 8.24 µM | OVCAR-3 33.9 µM | OVCAR-4 40.2 µM | OVCAR-8 28.6 µM | RPMI-8226 21.2 µM | SF-539 24.5 µM | SK-MEL-2 > 100 µM | SK-MEL-5 27.9 µM | SN12C > 100 µM | SR 16.7 µM | UACC-62 50.2 µM | UO-31 37.4 µM

CCCCCC(=O)OCC1(CO)C/C(=C/CC(C(C)C)C(C)C)C(=O)O1 (configuration not stated)
inactive: A498 > 75 µM | HT-29 38.6 µM | MDA-MB-231 > 75 µM | MDA-N 34 µM | NCI-H226 > 75 µM | NCI-H460 24.8 µM | NCI-H522 13.7 µM | OVCAR-3 50 µM | OVCAR-4 53.2 µM | OVCAR-8 21.9 µM | PC-3 63.5 µM | SK-MEL-2 > 75 µM | SK-MEL-5 48.8 µM | SN12C 30.5 µM | UACC-62 > 75 µM | UO-31 17.2 µM

CCOC(=O)C1(C/C=C/CBr)CCc2ccccc2C1=O (configuration not stated)
inactive: A498 18.5 µM | HL-60 6.3 µM | HT-29 21.9 µM | MDA-MB-231 18.2 µM | MDA-N 14.4 µM | NCI-H226 6.95 µM | NCI-H522 12.6 µM | OVCAR-4 13.6 µM | OVCAR-8 15.7 µM | PC-3 15.7 µM | SF-539 18.1 µM | SK-MEL-2 14.1 µM | SK-MEL-5 12 µM | SN12C 15.1 µM | UACC-62 10.6 µM | UO-31 14.3 µM

CC1=CC(=O)/C(=C/N2CCNC2=S)C(=O)O1
inactive: A498 > 100 µM | HL-60 > 100 µM | HT-29 > 100 µM | MDA-MB-231 > 100 µM | MDA-N > 100 µM | NCI-H226 > 100 µM | NCI-H460 > 100 µM | NCI-H522 > 100 µM | OVCAR-4 > 100 µM | OVCAR-8 > 100 µM | PC-3 > 100 µM | RPMI-8226 > 100 µM | SF-539 > 100 µM | SK-MEL-2 > 100 µM | SK-MEL-5 97.3 µM | SN12C > 100 µM | UACC-62 > 100 µM | UO-31 > 100 µM

COC(=O)C1(O)C(c2ccccc2)NC2(C)CCCC21 (configuration not stated)
inactive: A498 > 100 µM | HL-60 > 100 µM | MDA-MB-231 > 100 µM | MDA-N > 100 µM | NCI-H226 > 100 µM | NCI-H522 > 100 µM | OVCAR-4 > 100 µM | OVCAR-8 > 100 µM | PC-3 > 100 µM | SF-539 > 100 µM | SK-MEL-2 > 100 µM | SK-MEL-5 > 100 µM | SN12C > 100 µM | UACC-62 > 100 µM | UO-31 > 100 µM
